US11224561B2, “Skin cleansing composition” (KAO CORPORATION, priority 2017, dated 2022)

Key:
[1] = Detergency against keratotic plug during cleansing: penetration of the sample into keratotic plugs; parameters: species or system human; details: samples of Table 1, contact for 1 minute
Protocol: Keratotic plugs in the nasal region were removed with “Biore Nose Pack (manufactured by Kao Corporation)”, the resulting keratotic plugs on the pack were gently taken out with tweezers. […] Consequently, the sample entered into the gap between the slide glass and the cover glass by capillary phenomenon and was brought into contact with the keratotic plugs. The contact of the keratotic plugs and the sample was recorded with a digital microscope (VHX-5000, manufactured by Keyence Corporation, magnification: 150×), and the penetration of the sample into the keratotic plugs and the collapse state of the keratotic plugs were evaluated after one minute from the contact of the keratotic plugs with the sample. The results of each evaluation are shown in the columns “Keratotic plug detergency (penetration)” and “Keratotic plug detergency (during cleansing)” in Tables. The measurements were performed at 25° C. The penetration was relatively evaluated by criteria with 11 ratings from the rating 1 “the sample hardly penetrated into the keratotic plug” to the rating 11 “the sample penetrated to the center of the keratotic plug”. The collapsibility by the detergency against keratotic plug was relatively evaluated by criteria with 11 ratings from the rating 1 “almost no change is observed in the external appearance of the keratotic plug” to the rating 11 “peeling or separation is observed in the area from the surface layer to the central portion of the keratotic plug (the initial appearance of the keratotic plug is not retained)”.

[2] = Detergency against keratotic plug after washing with water: collapse state; parameters: species or system human; details: samples of Table 1, washing with water
Excerpt: The penetration was relatively evaluated by criteria with 11 ratings from the rating 1 “the sample hardly penetrated into the keratotic plug” to the rating 11 “the sample penetrated to the center of the keratotic plug”. The collapsibility by the detergency against keratotic plug was relatively evaluated by criteria with 11 ratings from the rating 1 “almost no change is observed in the external appearance of the keratotic plug” to the rating 11 “peeling or separation is observed in the area from the surface layer to the central portion of the keratotic plug (the initial appearance of the keratotic plug is not retained)”. After one minute from the contact of the keratotic plugs with the sample, Kimwipes (registered trademark) was brought into contact with an edge of the cover glass to remove the sample under the cover glass. […] The results of the evaluation are shown in the column “Keratotic plug detergency (during washing with water)” in Table. The measurements were performed at 25° C.

[3] = at 25° C.; cited from earlier work
[4] = Detergency against keratotic plug during cleansing: collapse state of keratotic plugs; parameters: species or system human; details: samples of Table 1, contact for 1 minute
Protocol: Keratotic plugs in the nasal region were removed with “Biore Nose Pack (manufactured by Kao Corporation)”, the resulting keratotic plugs on the pack were gently taken out with tweezers.
The resulting keratotic plugs were placed on a slide glass and were covered with a cover glass, and 0.05 mL of a sample was dropwise added to an edge of the cover glass. Consequently, the sample entered into the gap between the slide glass and the cover glass by capillary phenomenon and was brought into contact with the keratotic plugs. The contact of the keratotic plugs and the sample was recorded with a digital microscope (VHX-5000, manufactured by Keyence Corporation, magnification: 150×), and the penetration of the sample into the keratotic plugs and the collapse state of the keratotic plugs were evaluated after one minute from the contact of the keratotic plugs with the sample. The results of each evaluation are shown in the columns “Keratotic plug detergency (penetration)” and “Keratotic plug detergency (during cleansing)” in Tables. The measurements were performed at 25° C.
The penetration was relatively evaluated by criteria with 11 ratings from the rating 1 “the sample hardly penetrated into the keratotic plug” to the rating 11 “the sample penetrated to the center of the keratotic plug”. The collapsibility by the detergency against keratotic plug was relatively evaluated by criteria with 11 ratings from the rating 1 “almost no change is observed in the external appearance of the keratotic plug” to the rating 11 “peeling or separation is observed in the area from the surface layer to the central portion of the keratotic plug (the initial appearance of the keratotic plug is not retained)”.

[5] = tested on: insoluble protein (seine protein); experiment: Effect of suppressing protein aggregation (precipitation of insoluble protein); details: sample of Table 1
Protocol: Thirty milliliters of a sample and 0.06 g of an insoluble protein (seine protein) were placed in a 35-mL standard glass bottle, and the concentration of the insoluble protein was adjusted to 0.2 mass % (test sample). Separately, a standard sample was prepared by using water instead of the sample and adjusting the concentration of the insoluble protein to 0.2 mass %. Subsequently, the standard glass bottles were sufficiently shaken and stirred up and down (shake width: 15 cm, 20 times at a rate of 5 times for 3 seconds) in a thermostatic chamber of 25° C. and were left to stand for 3 minutes. The precipitation state of the insoluble protein was then visually verified, and the ratio of the amount of the precipitated standard sample to the amount of the precipitated test sample (the height of the precipitate in each standard glass bottle was measured as the precipitation amount), (precipitation amount of standard sample)/(precipitation amount of test sample), was calculated. A higher ratio indicates a higher effect of suppressing protein aggregation.

Row | Molecule | penetration of the sample into keratotic plugs (in words) [1] | swelling of sample-treated keratotic plugs on contact with water (in words) [2] | pKa [3] | collapse of keratotic plugs in contact with the sample (in words) [4] | action on proteins (in words) [5]
1 | CC(N)(CO)CO [AMPD, 2-amino-2-methyl-1,3-propanediol] | penetrated into keratotic plugs | swelled when contacted with water | – | – | –
2 | CC(C)(N)CO [Component (X3)] | – | – | 9.72 | – | –
3 | O=P([O-])([O-])O.[Na+].[Na+] [disodium hydrogen phosphate] | hardly penetrated into keratotic plugs | did not swell even when contacted with water | – | the collapse of the keratotic plugs did not progress | –
4 | O=C([O-])O.[Na+] [sodium hydrogen carbonate] | hardly penetrated into keratotic plugs | did not swell even when contacted with water | – | the collapse of the keratotic plugs did not progress | –
5 | O=P([O-])([O-])[O-].[Na+].[Na+].[Na+] [trisodium phosphate] | hardly penetrated into keratotic plugs | did not swell even when contacted with water | – | the collapse of the keratotic plugs did not progress | –
6 | sodium polyoxyethylene (2) lauryl ether sulfate [POE (2) sodium lauryl sulfate] | hardly penetrated into the keratotic plugs | – | – | the collapse of the keratotic plugs did not progress | the action on proteins was strong to dissolve the proteins
